From publication PMC7368294 (Proceedings of the National Academy of Sciences of the …, 2020)

Experiments:
Assay in all cases: cell-based
Set-up in all cases: species or system Xenopus laevis oocytes
[1] = molecular target: T1, Btα1/Btα8/Btβ1 nAChR (Bombus terrestris, UniProt A0A9B0BGM1+A0A9B0F4H3+A0A9B2JDZ7)
T1 sequence (A0A9B0F4H3 44-615): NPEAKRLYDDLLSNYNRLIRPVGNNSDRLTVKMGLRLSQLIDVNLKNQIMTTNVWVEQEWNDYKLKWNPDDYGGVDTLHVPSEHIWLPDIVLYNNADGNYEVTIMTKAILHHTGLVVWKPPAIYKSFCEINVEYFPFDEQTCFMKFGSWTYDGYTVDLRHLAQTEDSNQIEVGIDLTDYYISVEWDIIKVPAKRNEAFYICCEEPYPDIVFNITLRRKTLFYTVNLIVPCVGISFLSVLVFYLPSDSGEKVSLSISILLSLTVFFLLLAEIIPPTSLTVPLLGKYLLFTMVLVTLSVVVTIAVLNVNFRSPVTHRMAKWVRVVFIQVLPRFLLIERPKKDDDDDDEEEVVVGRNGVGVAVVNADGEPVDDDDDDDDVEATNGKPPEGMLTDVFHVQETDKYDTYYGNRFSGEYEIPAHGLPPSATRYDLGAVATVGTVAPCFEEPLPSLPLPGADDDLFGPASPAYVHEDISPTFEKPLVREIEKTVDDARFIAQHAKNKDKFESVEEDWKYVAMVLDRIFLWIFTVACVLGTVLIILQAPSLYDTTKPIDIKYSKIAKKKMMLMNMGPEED
T1 sequence (A0A9B2JDZ7 22-535): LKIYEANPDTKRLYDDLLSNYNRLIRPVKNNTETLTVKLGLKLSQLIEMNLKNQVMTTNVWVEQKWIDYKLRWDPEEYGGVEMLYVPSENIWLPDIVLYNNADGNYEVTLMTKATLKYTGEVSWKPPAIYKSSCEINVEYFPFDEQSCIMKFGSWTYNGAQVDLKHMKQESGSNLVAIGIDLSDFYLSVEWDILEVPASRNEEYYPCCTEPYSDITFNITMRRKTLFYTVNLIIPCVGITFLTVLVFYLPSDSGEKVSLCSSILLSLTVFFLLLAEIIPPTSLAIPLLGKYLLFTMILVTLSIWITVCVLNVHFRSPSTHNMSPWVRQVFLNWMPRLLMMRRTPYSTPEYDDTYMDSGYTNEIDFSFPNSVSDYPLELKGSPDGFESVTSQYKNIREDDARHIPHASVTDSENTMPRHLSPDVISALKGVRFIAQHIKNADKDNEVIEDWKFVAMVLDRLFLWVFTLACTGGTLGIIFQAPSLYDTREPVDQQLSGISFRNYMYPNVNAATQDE
T1 sequence (A0A9B0BGM1 19-519): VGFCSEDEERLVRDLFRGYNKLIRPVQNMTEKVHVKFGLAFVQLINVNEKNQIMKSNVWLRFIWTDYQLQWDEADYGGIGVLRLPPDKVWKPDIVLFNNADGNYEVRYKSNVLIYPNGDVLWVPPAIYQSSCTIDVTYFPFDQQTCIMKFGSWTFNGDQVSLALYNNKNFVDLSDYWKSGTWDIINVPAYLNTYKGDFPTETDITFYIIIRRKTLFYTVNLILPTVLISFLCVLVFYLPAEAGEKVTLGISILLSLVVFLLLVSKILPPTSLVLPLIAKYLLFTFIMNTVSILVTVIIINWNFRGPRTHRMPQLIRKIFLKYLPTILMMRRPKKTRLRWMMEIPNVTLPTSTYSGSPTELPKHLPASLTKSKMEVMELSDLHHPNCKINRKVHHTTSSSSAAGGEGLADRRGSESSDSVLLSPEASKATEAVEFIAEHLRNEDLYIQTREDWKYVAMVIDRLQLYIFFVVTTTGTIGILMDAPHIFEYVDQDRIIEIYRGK

[2] = molecular target: Btα1/Btα2/Btα8/Btβ1 nAChR (Bombus terrestris, UniProt A0A9B0BGM1+A0A9B0F4H3+A0A9B2JDZ7+A0A9B2JMX7)
[3] = molecular target: T2, Amα1/Amα8/Amβ1 nAChR (Apis mellifera, UniProt A0A7M7MMZ9+A0A8U0WQ70+A0A8U0WQC0)
T2 sequence (A0A7M7MMZ9 44-627): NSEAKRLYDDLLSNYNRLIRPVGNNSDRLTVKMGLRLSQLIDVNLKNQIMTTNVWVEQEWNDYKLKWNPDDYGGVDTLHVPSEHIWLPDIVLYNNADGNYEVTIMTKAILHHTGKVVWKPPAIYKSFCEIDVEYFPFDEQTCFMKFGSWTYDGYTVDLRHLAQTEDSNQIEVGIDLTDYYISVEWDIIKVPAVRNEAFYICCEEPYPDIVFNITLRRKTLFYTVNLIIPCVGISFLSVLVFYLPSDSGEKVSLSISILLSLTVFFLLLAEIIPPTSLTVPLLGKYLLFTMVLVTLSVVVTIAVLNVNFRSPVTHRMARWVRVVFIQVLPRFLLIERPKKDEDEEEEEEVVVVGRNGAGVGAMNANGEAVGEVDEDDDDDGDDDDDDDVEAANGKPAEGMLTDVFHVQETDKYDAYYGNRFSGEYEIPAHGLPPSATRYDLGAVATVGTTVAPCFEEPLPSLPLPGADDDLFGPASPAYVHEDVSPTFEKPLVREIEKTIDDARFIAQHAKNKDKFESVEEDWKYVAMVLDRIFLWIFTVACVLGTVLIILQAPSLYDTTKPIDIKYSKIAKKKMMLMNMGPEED
T2 sequence (A0A8U0WQ70 25-537): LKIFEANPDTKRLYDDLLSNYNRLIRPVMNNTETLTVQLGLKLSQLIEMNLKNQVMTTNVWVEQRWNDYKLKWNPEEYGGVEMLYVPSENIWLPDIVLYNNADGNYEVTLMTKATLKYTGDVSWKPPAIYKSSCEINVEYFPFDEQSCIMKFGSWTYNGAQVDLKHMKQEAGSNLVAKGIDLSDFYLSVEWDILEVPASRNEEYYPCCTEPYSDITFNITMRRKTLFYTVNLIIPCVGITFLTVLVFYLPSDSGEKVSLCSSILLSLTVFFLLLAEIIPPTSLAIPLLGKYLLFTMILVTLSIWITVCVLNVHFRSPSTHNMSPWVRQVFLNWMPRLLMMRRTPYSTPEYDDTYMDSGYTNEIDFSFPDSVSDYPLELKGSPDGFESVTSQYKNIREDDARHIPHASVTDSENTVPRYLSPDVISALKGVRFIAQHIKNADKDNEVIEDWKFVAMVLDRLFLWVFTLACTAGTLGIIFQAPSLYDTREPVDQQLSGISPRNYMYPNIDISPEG
T2 sequence (A0A8U0WQC0 25-520): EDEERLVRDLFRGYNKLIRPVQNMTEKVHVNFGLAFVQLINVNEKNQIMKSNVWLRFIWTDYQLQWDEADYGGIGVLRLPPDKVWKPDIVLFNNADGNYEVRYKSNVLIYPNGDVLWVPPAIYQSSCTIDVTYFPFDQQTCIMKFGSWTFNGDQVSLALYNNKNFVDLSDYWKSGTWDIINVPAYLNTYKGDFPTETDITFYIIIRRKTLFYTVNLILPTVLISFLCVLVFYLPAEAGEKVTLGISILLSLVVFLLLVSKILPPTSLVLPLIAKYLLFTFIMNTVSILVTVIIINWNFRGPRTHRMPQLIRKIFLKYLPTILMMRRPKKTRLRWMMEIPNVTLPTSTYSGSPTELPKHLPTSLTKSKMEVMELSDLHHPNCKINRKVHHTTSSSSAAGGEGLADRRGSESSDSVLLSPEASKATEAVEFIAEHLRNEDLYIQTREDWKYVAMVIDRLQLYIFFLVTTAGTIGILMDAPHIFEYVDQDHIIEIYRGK

[4] = molecular target: Amα1/Amα2/Amα8/Amβ1 nAChR (Apis mellifera, UniProt A0A7M7MMZ9+A0A8U0WQ70+A0A8U0WQC0+A0A8U0WQD1)
Chain of Amα1/Amα2/Amα8/Amβ1 nAChR (A0A8U0WQD1 18-541, one chain of several): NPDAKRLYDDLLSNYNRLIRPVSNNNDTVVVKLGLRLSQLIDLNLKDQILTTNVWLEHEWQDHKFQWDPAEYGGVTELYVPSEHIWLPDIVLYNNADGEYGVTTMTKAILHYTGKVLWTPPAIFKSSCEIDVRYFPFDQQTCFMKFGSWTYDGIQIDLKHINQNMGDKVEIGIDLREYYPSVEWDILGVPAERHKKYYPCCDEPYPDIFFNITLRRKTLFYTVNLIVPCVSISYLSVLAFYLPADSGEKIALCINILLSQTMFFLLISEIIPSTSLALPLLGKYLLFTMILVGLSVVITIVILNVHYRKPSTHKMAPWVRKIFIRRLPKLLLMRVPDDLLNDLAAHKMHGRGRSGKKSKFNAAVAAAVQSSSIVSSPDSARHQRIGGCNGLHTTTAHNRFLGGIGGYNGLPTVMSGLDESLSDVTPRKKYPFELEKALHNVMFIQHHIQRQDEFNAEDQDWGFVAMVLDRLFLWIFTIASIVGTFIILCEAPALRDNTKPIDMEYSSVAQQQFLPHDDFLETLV

Chain of Btα1/Btα2/Btα8/Btβ1 nAChR (A0A9B2JMX7 18-544, one chain of several): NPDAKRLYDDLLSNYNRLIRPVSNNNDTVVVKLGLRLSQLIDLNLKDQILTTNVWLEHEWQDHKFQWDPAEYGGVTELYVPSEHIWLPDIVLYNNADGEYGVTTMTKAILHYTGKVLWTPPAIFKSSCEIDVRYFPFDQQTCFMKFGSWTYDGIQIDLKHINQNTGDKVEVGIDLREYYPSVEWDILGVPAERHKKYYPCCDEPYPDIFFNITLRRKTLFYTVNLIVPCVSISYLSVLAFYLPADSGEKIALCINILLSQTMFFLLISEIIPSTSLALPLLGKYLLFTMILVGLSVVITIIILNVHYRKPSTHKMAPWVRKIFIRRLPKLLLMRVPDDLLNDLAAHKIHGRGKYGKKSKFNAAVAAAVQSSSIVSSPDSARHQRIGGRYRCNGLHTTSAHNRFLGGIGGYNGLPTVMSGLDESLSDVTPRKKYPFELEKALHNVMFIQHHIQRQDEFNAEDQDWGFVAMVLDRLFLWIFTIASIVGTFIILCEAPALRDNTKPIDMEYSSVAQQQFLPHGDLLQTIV

Q: CC(=O)OCC[N+](C)(C)C [Acetylcholine] was tested. Which EC50 [1] did it give?
A: 1.58 µM

Q: What about the EC50 [2] of the same compound?
A: 2.19 µM

Q: And the EC50 [3]?
A: 1.15 µM

Q: What about the EC50 [4] of the same compound?
A: 1.91 µM
